# Test results taken from ChEMBL document CHEMBL4265966 (Bioorg Med Chem Lett, 2018).
# Calls of active or inactive are those of the source. The rule behind the calls is not given here.
# Key:
# [1] = target: T1, Sodium-dependent serotonin transporter (Homo sapiens, UniProt P31645); assay: Potency index, ratio of (S)-citalopram Ki to compound Ki for displacement of [125I]-RTI-55 from human SERT expressed in HEK293 cell membranes
# Target sequence in this assay (P31645 whole entry, looked up): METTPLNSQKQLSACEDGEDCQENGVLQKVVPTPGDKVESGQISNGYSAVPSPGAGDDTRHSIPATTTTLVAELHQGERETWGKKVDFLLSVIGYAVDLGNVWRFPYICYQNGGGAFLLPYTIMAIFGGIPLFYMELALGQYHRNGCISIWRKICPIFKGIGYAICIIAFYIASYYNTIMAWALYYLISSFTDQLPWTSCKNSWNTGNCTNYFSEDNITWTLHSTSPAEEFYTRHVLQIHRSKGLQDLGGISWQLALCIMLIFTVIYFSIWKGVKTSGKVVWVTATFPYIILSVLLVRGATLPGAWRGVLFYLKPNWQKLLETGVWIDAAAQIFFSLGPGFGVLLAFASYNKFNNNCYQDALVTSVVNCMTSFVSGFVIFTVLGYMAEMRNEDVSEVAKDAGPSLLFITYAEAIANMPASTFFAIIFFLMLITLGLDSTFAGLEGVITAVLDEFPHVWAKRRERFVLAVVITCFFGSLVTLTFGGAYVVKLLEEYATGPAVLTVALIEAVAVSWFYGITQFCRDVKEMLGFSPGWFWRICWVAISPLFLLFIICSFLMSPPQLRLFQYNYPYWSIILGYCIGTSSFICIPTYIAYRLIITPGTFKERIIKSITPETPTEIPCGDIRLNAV
# [2] = target: T1, Sodium-dependent serotonin transporter; assay: Binding affinity to human SERT expressed in HEK293 cells at 1 uM preincubated for 1 hr followed by UV light irradiation for 20 mins by IRDye 800 CW azide based tandem photoaffinity labeling-biorthogonal conjugation assay; format: cell-based
# Target sequence in this assay (P31645 whole entry, looked up): as above
# [3] = target: T1, Sodium-dependent serotonin transporter; assay: Binding affinity to human SERT expressed in HEK293 cells at 1 uM after 1 hr by IRDye 800 CW azide based tandem photoaffinity labeling-biorthogonal conjugation assay; format: cell-based
# Target sequence in this assay (P31645 whole entry, looked up): as above
# [4] = target: T1, Sodium-dependent serotonin transporter; assay: biochemical; format: cell-based, HEK293
# Target sequence in this assay (P31645 whole entry): as the sequence (P31645 whole entry, looked up) above
# Description: Displacement of [125I]-RTI-55 from human SERT expressed in HEK293 cell membranes after 1 hr by gamma counting method
# [5] = target: T1, Sodium-dependent serotonin transporter; assay: Binding affinity to human SERT expressed in HEK293 cells at 1 uM preincubated for 1 hr followed by UV light irradiation for 20 mins in presence of (S)-citalopram by IRDye 800 CW azide based tandem photoaffinity labeling-biorthogonal conjugation assay; format: cell-based
# Target sequence in this assay (P31645 whole entry, looked up): as above
Compound,Ratio Ki [1],Activity [2],Activity [3],Ki [4] [nM],Activity [5]
C#CCOc1ccc(C(=O)c2ccc(C(=O)NCc3ccc4c(c3)CO[C@@]4(CCCN(C)C)c3ccc(F)cc3)cc2)cc1,11,Active,inactive,0.16,inactive
C#CCOc1ccc(C(=O)c2ccc(CN(C)CCC[C@@]3(c4ccc(F)cc4)OCc4cc(C#N)ccc43)cc2)cc1,–,–,–,487,–
CN(C)CCC[C@@]1(c2ccc(F)cc2)OCc2cc(CNC(=O)c3cc(CN=[N+]=[N-])cc(N=[N+]=[N-])c3)ccc21,–,–,–,10.7,–
